Assay results as given in publication PMC9228535, “Antistaphylococcal Activities and ADME-Related Properties of Chlorinated Arylcarbamoylnaphthalenylcarbamates” (Pharmaceuticals, 2022).
Values after ≈ are worked out from the molar mass of the structure shown. Like-named read-outs stand apart in the source and are kept apart here.

Columns and labels:
[1] = Stability of ethyl carbamate by HPLC (decomposition rate, half-life); assay type: physicochemical; conditions: buffer, read-out: half-life τ0,5 (converted)
Method: The minimum inhibitory concentrations (MICs) were evaluated by the microtitration broth method according to the CLSI [64, 65] with some modifications. The compounds were dissolved in DMSO (Sigma, St. Louis, MO, USA) to get a concentration […] and diluted in a microtitration plate in an appropriate medium, namely, Cation Adjusted Mueller–Hinton (CaMH, Oxoid, Basingstoke, UK) for staphylococci (S. aureus ATCC 29213, clinical isolates of MRSA 63718, SA 630, and SA 3202) and brain heart infusion (BHI, Oxoid) for E. faecalis ATCC 29212, to reach the final concentration of 256-0.125 µg/mL. The plate was inoculated by the tested microorganisms. The final concentration of bacterial cells was 10^5 for bacteria. Ampicillin (Sigma) was used as reference drugs. A drug-free control and a sterility control were included. The plates were incubated for 24 h at 37 °C for staphylococci and E. faecalis ATCC 29212 (stability evaluation of the carbamates, see Supplementary materials, Table S1). […] The experiments were repeated three times. […]
evaluate of ethyl carbamate stability. A chromatographic column XTerra® Phenyl 3.5 μm, 100 × 4.6 mm (Waters Corp., Milford, MA, USA) was used. The HPLC separation process was monitored by ChemStation for LC 3D systems (Agilent Technologies). Isocratic elution by a mixture of acetonitrile (HPLC grade, 60.0%) and phosphate buffer, pH 2.5 (40%) as a mobile phase was used. The total flow of the column was 1.0 mL/min, injection 20 μL, the time of analysis was 8 min, column temperature 40 °C, and sample temperature 10 °C. The detection wavelength of 254 nm was chosen. The retention time (tR) of carbamate 2 was 4.92 ± 0.05 min and of the pattern anilide 3.12 ± 0.05 min.
Table S1. Ethyl carbamate 2 decomposition rate and half-life values.

[2] = Lipophilicity determination by RP-HPLC (log k, log D); assay type: physicochemical
Method: Lipophilicity was measured by reversed-phase high performance liquid chromatography (RP-HPLC) under isocratic conditions with methanol as the organic modifier in the aqueous mobile phase and the logarithm of the capacity factor k was calculated, which is used as the lipophilicity index converted to the log P scale. In addition to the log k values, the logarithm of the distribution coefficient DpH at pH 6.5 and 7.4 was determined to clarify the behavior of the compounds under physiological conditions and possible ionization. Instead of water, a buffer of suitable pH was used as part of the mobile phase. In addition to the above-mentioned experimental methods, commercially available ChemBioDraw Ultra 13.0 and ACD/Percepta ver. […] In addition to lipophilicity, other parameters discussed in Ro5, such as molecular weight, number of H-bond donors/acceptors, as well as parameters not reported in Ro5, but characterizing the physicochemical properties of the prepared molecules, such as number of rotatable bonds, were predicted using ACD/Percepta. Moreover, for each R substituent, bulkiness expressed as molar volume (MV [cm^3]), a parameter describing the tail length/branching of each carbamates, was calculated.
A HPLC separation module Agilent 1200 Series (Agilent Technologies, Santa Clara, CA, USA) equipped with a Dual Absorbance Detector (DAD SL G1315C, Agilent Technologies) was used. A chromatographic column Symmetry® C18 5 μm, 4.6 × 250 mm, Part No. W21751W016 (Waters Corp, Milford, MA, USA) was used. The HPLC separation process was monitored by ChemStation for LC 3D systems (Agilent Technologies). […] The total flow of the column was 1.0 mL/min, injection 20 μL, column temperature 40 °C, and sample temperature 10 °C. The detection wavelength of 210 nm was chosen. A KI methanolic solution was used for the determination of the dead times (tD). Retention times (tR) were measured in minutes. The capacity factors k were calculated according to the formula k = (tR − tD)/tD, where tR is the retention time of the solute, and tD is the dead time obtained using an unretained analyte. The distribution coefficients DpH were calculated according to the formula DpH = (tR − tD)/tD. Each experiment was repeated three times.

[3] = test system: Enterococcus faecalis ATCC 29212; assay: MIC, microtitration broth method; assay type: cell-based
Method: In vitro antibacterial activity of the synthesized compounds was evaluated against representatives of multidrug-resistant bacteria, three clinical isolates of methicillin-resistant S. aureus: clinical isolate of animal origin, MRSA 63718 (Department of Infectious Diseases and Microbiology, Faculty of Veterinary Medicine, University of Veterinary Sciences Brno, Czech Republic), carrying the mecA gene; and MRSA SA 630 [46] and MRSA SA 3202 [46] (National Institute of Public Health, Prague, Czech Republic), both of human origin. Suspected colonies were confirmed by PCR; a 108bp fragment specific for S. aureus was detected. All isolates were tested for the presence of the mecA gene encoding methicillin resistance. […] Vancomycin-susceptible methicillin-susceptible S. aureus (VS-MSSA) ATCC 29213, obtained from the American Type Culture Collection, was used as the reference and quality control strain. Enterococcus faecalis ATCC 29212 was obtained from the American Type Culture Collection and used as the reference and quality control strain.
The minimum inhibitory concentrations (MICs) were evaluated by the microtitration broth method according to the CLSI [64, 65] with some modifications. The compounds were dissolved in DMSO (Sigma, St. Louis, MO, USA) to get a concentration […] and diluted in a microtitration plate in an appropriate medium, namely, Cation Adjusted Mueller–Hinton (CaMH, Oxoid, Basingstoke, UK) for staphylococci (S. aureus ATCC 29213, clinical isolates of MRSA 63718, SA 630, and SA 3202) and brain heart infusion (BHI, Oxoid) for E. faecalis ATCC 29212, to reach the final concentration of 256-0.125 µg/mL. The plate was inoculated by the tested microorganisms. The final concentration of bacterial cells was 10^5 for bacteria. Ampicillin (Sigma) was used as reference drugs. A drug-free control and a sterility control were included. The plates were incubated for 24 h at 37 °C for staphylococci and E. faecalis ATCC 29212 (stability evaluation of the carbamates, see Supplementary materials, Table S1). […] The experiments were repeated three times.

For `CCNC(=O)Oc1c(C(=O)Nc2cc(Cl)c(Cl)cc2Cl)ccc2ccccc12` [Compound 2, 2-[N-(2,4,5-Trichlorophenyl)carbamoyl]naphthalen-1-yl ethyl carbamate], which half-life ([1]; pH 6) is on record?
Its half-life is 50.1 days.

What about the half-life ([1]; pH 7) of the same compound?
The half-life was 23.2 days.

What about the half-life ([1]; pH 8) of the same compound?
Its half-life is 9.12 days.

What about the “lipophilicity (experimental log k/log D, approximate)” value [2] of the same compound?
The value was “ca. 0.83”.

What about the “log D6.5” value ([2]; RP-HPLC, MeOH 72%/acetate buffered saline pH 6.5) of the same compound?
Its value is 0.8294.

And the “log D7.4” value ([2]; RP-HPLC, MeOH 72%/acetate buffered saline pH 7.4)?
Its value is 0.8339.

And the log k ([2]; RP-HPLC, MeOH 72%/water 28%)?
The log k was 0.8249.

What about the “anti-enterococcal activity (in words)” value ([3]; E. faecalis ATCC 29212) of the same compound?
The value was “medium activity”.

What about the MIC ([3]; Enterococcus faecalis, ATCC29212, 24 h) of the same compound?
Its MIC is 36.6 µM (≈ 16 µg/mL).
